Reference: paper PMC4708007 (Bioscience Reports, 2015)

Target: T1, FtRelA (Francisella tularensis, UniProt Q5NEV0)
T1 construct: gene relA
Assay: biochemical

T1 sequence (Q5NEV0 1-647 limits assumed): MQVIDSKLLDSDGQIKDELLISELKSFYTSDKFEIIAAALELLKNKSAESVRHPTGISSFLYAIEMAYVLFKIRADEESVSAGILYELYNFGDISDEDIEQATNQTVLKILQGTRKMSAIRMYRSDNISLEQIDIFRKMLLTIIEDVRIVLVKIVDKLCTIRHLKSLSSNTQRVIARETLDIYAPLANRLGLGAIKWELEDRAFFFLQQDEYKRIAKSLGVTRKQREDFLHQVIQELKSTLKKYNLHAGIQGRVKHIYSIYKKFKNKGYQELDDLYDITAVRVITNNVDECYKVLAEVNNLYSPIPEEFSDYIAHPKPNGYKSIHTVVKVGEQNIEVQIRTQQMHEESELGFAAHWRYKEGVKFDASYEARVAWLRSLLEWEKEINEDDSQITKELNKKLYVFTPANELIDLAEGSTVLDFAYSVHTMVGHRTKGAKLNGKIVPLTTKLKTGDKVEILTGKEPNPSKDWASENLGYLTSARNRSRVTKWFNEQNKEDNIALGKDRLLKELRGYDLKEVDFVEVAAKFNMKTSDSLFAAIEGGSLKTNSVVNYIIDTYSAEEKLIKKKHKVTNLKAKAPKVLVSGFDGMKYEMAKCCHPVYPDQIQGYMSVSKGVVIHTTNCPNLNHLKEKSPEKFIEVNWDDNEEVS

Compound `Nc1nc2c(ncn2[C@@H]2O[C@H](COP(=O)(O)OP(=O)(O)O)[C@@H](OP(=O)(O)OP(=O)(O)O)[C@H]2O)c(=O)[nH]1` [ppGpp] has an EC50 of 60 ± 1.9 µM.
